Entries after “also recorded” stand apart in the source; their conditions may differ.
Tests used:
[1] = test system: GRK2-mediated phosphorylation of Srsf1; assay: Cardiac Srsf1 phosphorylation under basal conditions in non-transgenic B6 mice after short-term treatment; assay type: in vivo, mouse; conditions: 10 mg/kg i.p., 5 h, immunoblot, relative to vehicle
Experimental: A, The GRK2-mediated phosphorylation of Srsf1 was determined by immunoblot in cardiac lysates prepared from hearts of non-transgenic B6 mice after treatment (i.p.) for 5 h with 10 mg/kg of 1-(1,3-benzodioxol-5-yl)-4-(cyclopropane-carbonyl)-3-hydroxy-2-phenyl-2H-pyrrol-5-one (“Compound-1”), 4-(1,3-benzodioxol-5-yl)pyrimidine (“Compound-4”), 1-(1,3-benzodioxol-5-ylmethyl)-5-(4-fluorophenyl)-2-methyl-pyrrole-3-carboxamide (“Compound-2”), or (4R)-N3-(1,3-benzodioxol-5-ylmethyl)-N4-[[3-(trifluoromethyl)phenyl]-methyl]pyrrolidine-3,4-dicarboxamide (“Compound-5”) relative to vehicle-treated B6 controls (“con”). […] B, Left panel: The AAC-induced cardiac p-Srsf1 content was determined in cardiac lysates from B6 mice with AAC after treatment for 7 days with 5 mg/kg/d of 1-(1,3-benzodioxol-5-yl)-4-(cyclopropane-carbonyl)-3-hydroxy-2-phenyl-2H-pyrrol-5-one (“Compound-1”) or (4R)-N3-(1,3-benzodioxol-5-ylmethyl)-N4-[[3-(trifluoromethyl)phenyl]-methyl]pyrrolidine-3,4-dicarboxamide (“Compound-5”) relative to vehicle-treated B6 controls with AAC (“AAC-con”). […] Right and lower panels: Cardiac function parameters were determined by echocardiography in B6 mice with AAC after treatment for 7 days with “Compound-1” or “Compound-5” relative to vehicle-treated B6 controls with AAC ((±s.d.; n=5 (A) and n=3 (B); Dunnett's Multiple Comparison Test vs. con (A) or AAC-con (B)).

B6 mice with AAC = assay: Chronic pressure overload (AAC) model of heart failure, oral treatment for 2 months; assay type: in vivo, mouse; conditions: for left ventricular ejection fraction: B6 mice, oral 2 months, Compound-1 3 mg/kg/d, Compound-4 5 mg/kg/d, untreated AAC 28.6%±3.5%, ±s.d., n=5
Experimental: A, The left ventricular ejection fraction was determined in 6 month-old male B6 mice with chronic pressure overload imposed by 3 months of AAC and oral treatment with Compound-1 (AAC+compd-1) and Compound-4 (AAC+compd-4) relative to untreated AAC controls. Treatment was started one month after AAC induction and was continued for 2 months. Only mice with heart failure (ejection fraction <34% after one month of AAC) were included in the study (±s.d., n=5/group, ***p=0.0006, **p=0.0051 vs. untreated AAC; Dunnett's multiple comparison test).
We investigated whether the new small molecule GRK2 inhibitors, Compound-1 (1-(1,3-benzodioxol-5-yl)-4-(cyclopropanecarbonyl)-3-hydroxy-2-phenyl-2H-pyrrol-5-one)) and Compound-4 (4-(1,3-benzodioxol-5-yl)pyrimidine) could retard symptoms of heart failure in a chronic pressure overload model of heart failure imposed by abdominal aortic constriction (AAC). Compound-1 (3 mg/kg/d) and Compound-4 (5 mg/kg/d) were applied orally in the AAC-induced model of heart failure. Oral treatment with Compound-1 and Compound-4 was initiated in B6 mice with symptoms of heart failure (left ventricular ejection fraction <34%) induced by four weeks of AAC.
Chronic pressure overload imposed by abdominal aortic constriction (AAC) was used as an experimental model to induce cardiac hypertrophy and signs of heart failure. Aortic constriction of the abdominal aorta was performed in tribromoethanol-anesthetized 8-12 week-old transgenic mice or non-transgenic B6 controls as described (AbdAlla S, et al., Cardiovasc. Hematological Agents Med. Chem. 9, 190-206 (2011)). The abdominal aorta was constricted above the suprarenal artery by tying a 7-0 silk suture ligature against a blunt 26-gauge needle. Age-matched controls underwent identical surgical procedure except for ligation of the aorta (sham-operated mice).

SMILES	GRK2-mediated Srsf1 phosphorylation under basal conditions in the hearts of non-transgenic B6 mice [1]	cardiovascular disease-induced ageing (grey coloring of the hair) (B6 mice with AAC; 2 months (8 weeks) of treatment, AAC mice)	AAC-induced cardiac hypertrophy (histology) (B6 mice with AAC; 3 months AAC, 2 months oral treatment)	left ventricular ejection fraction (B6 mice with AAC; 3 months AAC)
O=C(C1=C(O)C(c2ccccc2)N(c2ccc3c(c2)OCO3)C1=O)C1CC1 (stereo not drawn) [Compound-1, 1-(1,3-benzodioxol-5-yl)-4-(cyclopropane-carbonyl)-3-hydroxy-2-phenyl-2H-pyrrol-5-one]	decreased	substantially retarded	retards; also recorded: decrease	41.4±4.8%
c1cc(-c2ccc3c(c2)OCO3)ncn1 [Compound-4, 4-(1,3-benzodioxol-5-yl)pyrimidine]	decreased			38.2±3.7%

Source: patent US11628159B2, “Cell-protective compounds and their use” (ETH ZURICH, priority 2017, dated 2023)
